Test results reported in patent US20220089575A1, “FARNESOID X RECEPTOR AGONISTS AND USES THEREOF” (Metacrine, Inc., priority 2017, published 2022).
pEC50: −log10 of the molar value.

Molecular target: T1, hFXR (Homo sapiens, UniProt Q96RI1)
T1 construct: expressed in transfected cells; host or cells: CV-1 cells
T1 sequence (Q96RI1 1-486): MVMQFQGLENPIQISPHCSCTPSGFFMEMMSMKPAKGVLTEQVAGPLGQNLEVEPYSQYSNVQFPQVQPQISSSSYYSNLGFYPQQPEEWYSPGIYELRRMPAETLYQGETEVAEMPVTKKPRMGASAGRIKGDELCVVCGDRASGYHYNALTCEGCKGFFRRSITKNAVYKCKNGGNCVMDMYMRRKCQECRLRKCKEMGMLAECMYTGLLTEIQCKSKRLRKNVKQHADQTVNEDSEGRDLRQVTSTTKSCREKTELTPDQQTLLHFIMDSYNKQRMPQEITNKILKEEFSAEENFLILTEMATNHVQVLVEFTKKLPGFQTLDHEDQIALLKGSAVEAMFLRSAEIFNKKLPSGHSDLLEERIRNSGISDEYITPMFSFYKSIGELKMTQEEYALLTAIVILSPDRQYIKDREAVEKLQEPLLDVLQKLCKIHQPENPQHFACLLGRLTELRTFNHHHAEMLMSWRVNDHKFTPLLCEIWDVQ
T1 sequence (P19793 1-462 partner): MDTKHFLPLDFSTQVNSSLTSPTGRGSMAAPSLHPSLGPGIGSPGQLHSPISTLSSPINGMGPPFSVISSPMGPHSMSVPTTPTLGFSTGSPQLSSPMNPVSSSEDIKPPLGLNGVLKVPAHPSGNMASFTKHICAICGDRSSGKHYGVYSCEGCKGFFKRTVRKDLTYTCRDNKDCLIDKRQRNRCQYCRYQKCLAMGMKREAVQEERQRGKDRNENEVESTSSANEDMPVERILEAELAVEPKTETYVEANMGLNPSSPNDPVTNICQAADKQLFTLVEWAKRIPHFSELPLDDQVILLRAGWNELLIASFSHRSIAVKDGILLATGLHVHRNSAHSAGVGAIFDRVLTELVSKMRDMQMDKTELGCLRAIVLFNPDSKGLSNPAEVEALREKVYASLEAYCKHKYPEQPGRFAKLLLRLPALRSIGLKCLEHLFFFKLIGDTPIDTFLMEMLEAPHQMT
Assay: In Vitro FXR Assay (TK): TK-ECRE-luc reporter in transfected CV-1 cells
Type: cell-based
Conditions: 18 hrs, luminescence, maximum efficacy of <25% of the Fexarmine control classified as '+'
Summary of the method: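 CV-1, transient co-transfection: hFXR + hRXR + TK-ECRE-luc + pCMX-YFP; charcoal-stripped serum. 18 h post-transfection, DMSO serial dilutions of cpd added; 18 h incubation; lysis, luminescence.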

pEC50, ≥ 6.60:
CN(C)c1ccc([C@H]2CC[C@H](CN(c3cccc(-c4coc(C5CC5)n4)c3)C(=O)[C@H]3CC[C@H](OC(=O)N4CC(O)C4)CC3)CC2)cn1 [Compound 7.63, trans-4-((3-(2-Cyclopropyloxazol-4-yl)phenyl)((trans-4-(6-(dimethylamino)pyridine-3-yl)cyclohexyl)methyl)carbamoyl)cyclohexyl 3-hydroxyazetidine-1-carboxylate]
COc1ccc([C@H]2CC[C@H](CN(c3cccc(-c4coc(C(C)C)n4)c3)C(=O)[C@H]3CC[C@H](OC(=O)N4CC(O)C4)CC3)CC2)cc1C [Compound 7.64, trans-4-((3-(2-Isopropyloxazol-4-yl)phenyl)((trans-4-(4-methoxy-3-methylphenyl)cyclohexyl)methyl)carbamoyl)cyclohexyl 3-hydroxyazetidine-1-carboxylate]
COc1ccc([C@H]2CC[C@H](CN(c3cccc(-c4coc(C(C)C)n4)c3)C(=O)[C@H]3CC[C@H](OC(=O)N4CC(O)C4)CC3)CC2)nc1C [Compound 7.65, trans-4-((3-(2-Isopropyloxazol-4-yl)phenyl)((trans-4-(5-methoxy-6-methylpyridin-2-yl)cyclohexyl)methyl)carbamoyl)cyclohexyl 3-hydroxyazetidine-1-carboxylate]
COc1ccc([C@H]2CC[C@H](CN(c3cccc(-c4coc(C5CC5)n4)c3)C(=O)[C@H]3CC[C@H](OC(=O)N4CC(O)C4)CC3)CC2)nc1C [Compound 7.66, trans-4-((3-(2-Cyclopropyloxazol-4-yl)phenyl)((trans-4-(5-methoxy-6-methylpyridin-2-yl)cyclohexyl)methyl)carbamoyl)cyclohexyl 3-hydroxyazetidine-1-carboxylate]
COc1ccc([C@H]2CC[C@H](CN(c3cc(-c4coc(C5CC5)n4)ccn3)C(=O)[C@H]3CC[C@H](OC(=O)N4CC(O)C4)CC3)CC2)cc1C [Compound 7.67, trans-4-((4-(2-Cyclopropyloxazol-4-yl)pyridine-2-yl)((trans-4-(4-methoxy-3-methylphenyl)cyclohexyl)methyl)carbamoyl)cyclohexyl 3-hydroxyazetidine-1-carboxylate]
COc1ccc([C@H]2CC[C@H](CN(c3cccc(-c4coc(C5CC5)n4)c3)C(=O)[C@H]3CC[C@H](OC(=O)N4CC(O)C4)CC3)CC2)cc1C#N [Compound 7.68, trans-4-(((trans-4-(3-Cyano-4-methoxyphenyl)cyclohexyl)methyl)(3-(2-cyclopropyloxazol-4-yl)phenyl)carbamoyl)cyclohexyl 3-hydroxyazetidine-1-carboxylate]
COc1ccc([C@H]2CC[C@H](CN(c3cc(-c4coc(C5CC5)n4)ccn3)C(=O)[C@H]3CC[C@H](OC(=O)N4CC(O)C4)CC3)CC2)cc1C#N [Compound 7.69, trans-4-(((trans-4-(3-Cyano-4-methoxyphenyl)cyclohexyl)methyl)(4-(2-cyclopropyloxazol-4-yl)pyridine-2-yl)carbamoyl)cyclohexyl 3-hydroxyazetidine-1-carboxylate]
COc1ccc([C@H]2CC[C@H](CN(c3cccc(-c4coc(C5CC5)n4)c3)C(=O)[C@H]3CC[C@H](OC(=O)N4CC(O)C4)CC3)CC2)nc1C#N [Compound 7.70, trans-4-(((trans-4-(6-Cyano-5-methoxypyridin-2-yl)cyclohexyl)methyl)(3-(2-cyclopropyloxazol-4-yl)phenyl)carbamoyl)cyclohexyl 3-hydroxyazetidine-1-carboxylate]
COc1ccc([C@H]2CC[C@H](CN(c3cc(-c4coc(C(C)C)n4)ccn3)C(=O)[C@H]3CC[C@H](OC(=O)N4CC(O)C4)CC3)CC2)nc1C [Compound 7.71, trans-4-((4-(2-Isopropyloxazol-4-yl)pyridine-2-yl)((trans-4-(5-methoxy-6-methylpyridin-2-yl)cyclohexyl)methyl)carbamoyl)cyclohexyl 3-hydroxyazetidine-1-carboxylate]
COc1ccc([C@H]2CC[C@H](CN(c3cc(-c4coc(C5CC5)n4)ccn3)C(=O)[C@H]3CC[C@H](OC(=O)N4CC(O)C4)CC3)CC2)nc1C#N [Compound 7.72, trans-4-(((trans-4-(6-Cyano-5-methoxypyridin-2-yl)cyclohexyl)methyl)(4-(2-cyclopropyloxazol-4-yl)pyridine-2-yl)carbamoyl)cyclohexyl 3-hydroxyazetidine-1-carboxylate]
COc1ccc([C@H]2CC[C@H](CN(c3cc(-c4coc(C(C)C)n4)ccn3)C(=O)[C@H]3CC[C@H](OC(=O)N4CC(O)C4)CC3)CC2)cc1C#N [Compound 7.73, trans-4-(((trans-4-(3-Cyano-4-methoxyphenyl)cyclohexyl)methyl)(4-(2-isopropyloxazol-4-yl)pyridine-2-yl)carbamoyl)cyclohexyl 3-hydroxyazetidine-1-carboxylate]
COc1ccc([C@H]2CC[C@H](CN(c3cccc(-c4coc(C(C)C)n4)c3)C(=O)[C@H]3CC[C@H](OC(=O)N4CC(O)C4)CC3)CC2)nc1C#N [Compound 7.74, trans-4-(((trans-4-(6-Cyano-5-methoxypyridin-2-yl)cyclohexyl)methyl)(3-(2-isopropyloxazol-4-yl)phenyl)carbamoyl)cyclohexyl 3-hydroxyazetidine-1-carboxylate]
COc1ccc([C@H]2CC[C@H](CN(c3cc(-c4coc(C5CC5)n4)ccn3)C(=O)[C@H]3CC[C@H](OC(=O)N4CCC4)CC3)CC2)nc1C [Compound 7.75, trans-4-((4-(2-Cyclopropyloxazol-4-yl)pyridine-2-yl)((trans-4-(5-methoxy-6-methylpyridin-2-yl)cyclohexyl)methyl)carbamoyl)cyclohexyl azetidine-1-carboxylate]
COc1ccc([C@H]2CC[C@H](CN(c3cc(-c4coc(C5CC5)n4)ccn3)C(=O)[C@H]3CC[C@H](OC(=O)N4CC(OC)C4)CC3)CC2)nc1C [Compound 7.76, trans-4-((4-(2-Cyclopropyloxazol-4-yl)pyridine-2-yl)((trans-4-(5-methoxy-6-methylpyridin-2-yl)cyclohexyl)methyl)carbamoyl)cyclohexyl 3-methoxyazetidine-1-carboxylate]
COCC1CN(C(=O)O[C@H]2CC[C@H](C(=O)N(C[C@H]3CC[C@H](c4ccc(OC)c(C)n4)CC3)c3cc(-c4coc(C5CC5)n4)ccn3)CC2)C1 [Compound 7.77, trans-4-((4-(2-Cyclopropyloxazol-4-yl)pyridin-2-yl)((trans-4-(5-methoxy-6-methylpyridin-2-yl)cyclohexyl)methyl)carbamoyl)cyclohexyl 3-(methoxymethyl)azetidine-1-carboxylate]
COc1ccc([C@H]2CC[C@H](CN(c3cc(-c4coc(C5CC5)n4)ccn3)C(=O)[C@H]3CC[C@H](OC(=O)N(C)C)CC3)CC2)nc1C [Compound 7.78, trans-4-((4-(2-Cyclopropyloxazol-4-yl)pyridine-2-yl)((trans-4-(5-methoxy-6-methylpyridin-2-yl)cyclohexyl)methyl)carbamoyl)cyclohexyl dimethylcarbamate]
